Inconclusive results and toxic doses are left out.

In the assay the test system is L1210 leukemia ip in BDF1 mice, survival T/C. The assay can be described thus: NCI In Vivo Anticancer Drug Screen. Data for tumor model L1210 Leukemia (intraperitoneal) in B6D2F1 (BDF1) mice. As to conditions: endpoint: mean survival time, higher = longer survival. In a few lines: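 Tumor was transplanted into mice, which were then dosed with test compound or vehicle alone. Survival was recorded for each group, and the treated figure was expressed relative to the control figure.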

The mark [1] stands for this setting: dose: 100.0 mg/kg/injection, schedule: Q04DX003 (ip), vehicle: saline with Tween-80.
Where [2] appears, read: dose: 200.0 mg/kg/injection, schedule: Q04DX003 (ip), vehicle: saline with Tween-80.
[3] abbreviates: dose: 400.0 mg/kg/injection, schedule: Q04DX003 (ip), vehicle: saline with Tween-80.
[4] abbreviates: dose: 100.0 mg/kg/injection, schedule: Q04DX002 (ip), vehicle: Klucel (hydroxypropylcellulose) (HPC).
The mark [5] stands for this setting: dose: 100.0 mg/kg/injection, schedule: Q01DX001 (ip), vehicle: saline.
The mark [6] stands for this setting: dose: 200.0 mg/kg/injection, schedule: Q01DX001 (ip), vehicle: saline.
Setting [7] is: dose: 400.0 mg/kg/injection, schedule: Q01DX001 (ip), vehicle: saline.
Where [8] appears, read: dose: 200.0 mg/kg/injection, schedule: Q01DX001 (ip), vehicle: saline with Tween-80.
The mark [9] stands for this setting: dose: 400.0 mg/kg/injection, schedule: Q01DX001 (ip), vehicle: saline with Tween-80.
The mark [10] stands for this setting: dose: 100.0 mg/kg/injection, schedule: Q01DX009 (ip), vehicle: Klucel (hydroxypropylcellulose) (HPC).
Setting [11] is: dose: 200.0 mg/kg/injection, schedule: Q01DX009 (ip), vehicle: Klucel (hydroxypropylcellulose) (HPC).
[12] abbreviates: dose: 200.0 mg/kg/injection, schedule: Q04DX002 (ip), vehicle: Klucel (hydroxypropylcellulose) (HPC).
[13] abbreviates: dose: 400.0 mg/kg/injection, schedule: Q04DX002 (ip), vehicle: Klucel (hydroxypropylcellulose) (HPC).
Setting [14] is: dose: 100.0 mg/kg/injection, schedule: Q01DX001 (ip), vehicle: carboxymethylcellulose (CMC).
Setting [15] is: dose: 200.0 mg/kg/injection, schedule: Q01DX001 (ip), vehicle: carboxymethylcellulose (CMC).
Setting [16] is: dose: 400.0 mg/kg/injection, schedule: Q01DX001 (ip), vehicle: carboxymethylcellulose (CMC).

Consider `CC(C)(C)NC(=O)Nc1ccc2ccccc2c1`, for which the T/C reads like this: (dose: 100.0 mg/kg/injection, schedule: Q01DX009 (ip), vehicle: other) 93 % of control; (dose: 200.0 mg/kg/injection, schedule: Q01DX009 (ip), vehicle: other) 89 % of control; (dose: 400.0 mg/kg/injection, schedule: Q01DX009 (ip), vehicle: other) 94 % of control.

Regarding `OC1(C2(O)CCCC2)CCCC1`, the T/C reads like this: under setting [1], 98 % of control; under setting [2], 98 % of control; under setting [3], 95 % of control.

As to `CC[C@](C)(O)C(=O)O[C@H]1C(=O)O[C@@H]2C[C@H]3C(C)=CC(=O)[C@@H](O)[C@]3(C)[C@H]3[C@@]4(O)OC[C@]32[C@@H]1[C@@H](C)[C@H]4O`, the T/C was 98 % of control (dose: 0.2 mg/kg/injection, schedule: Q01DX009 (ip), vehicle: saline); 100 % of control (dose: 0.3 mg/kg/injection, schedule: Q01DX009 (ip), vehicle: saline); 92 % of control (dose: 0.44 mg/kg/injection, schedule: Q01DX009 (ip), vehicle: saline); 92 % of control (dose: 0.66 mg/kg/injection, schedule: Q01DX009 (ip), vehicle: saline); 102 % of control (dose: 1.0 mg/kg/injection, schedule: Q01DX009 (ip), vehicle: saline).

As to `CC(C)C(=O)NC1CCCCC1`, the T/C by setting is: (dose: 25.0 mg/kg/injection, schedule: Q04DX002 (ip), vehicle: Klucel (hydroxypropylcellulose) (HPC)) 111 % of control; (dose: 50.0 mg/kg/injection, schedule: Q04DX002 (ip), vehicle: Klucel (hydroxypropylcellulose) (HPC)) 111 % of control; under setting [4], 101 % of control.

Turning to `S=C(c1cccs1)N1CCOCC1`, the T/C is, setting by setting: (dose: 100.0 mg/kg/injection, schedule: Q04DX003 (ip), vehicle: gum acacia) 93 % of control; (dose: 200.0 mg/kg/injection, schedule: Q04DX003 (ip), vehicle: gum acacia) 100 % of control; (dose: 400.0 mg/kg/injection, schedule: Q04DX003 (ip), vehicle: gum acacia) 91 % of control.

In the case of `O=C(Nc1ccc(NC(=O)c2ccc(C3=NCCCN3)cc2)cc1)Nc1ccc(C2=NCCCN2)cc1`, the T/C is, setting by setting: (dose: 0.62 mg/kg/injection, schedule: Q01DX Z (ip), vehicle: carboxymethylcellulose (CMC)) 103 % of control; (dose: 1.25 mg/kg/injection, schedule: Q01DX Z (ip), vehicle: carboxymethylcellulose (CMC)) 110 % of control; (dose: 2.5 mg/kg/injection, schedule: Q01DX Z (ip), vehicle: carboxymethylcellulose (CMC)) 105 % of control; (dose: 5.0 mg/kg/injection, schedule: Q01DX Z (ip), vehicle: carboxymethylcellulose (CMC)) 174 % of control; (dose: 6.0 mg/kg/injection, schedule: Q01DX Z (ip), vehicle: carboxymethylcellulose (CMC)) 153 % of control; (dose: 8.0 mg/kg/injection, schedule: Q01DX Z (ip), vehicle: carboxymethylcellulose (CMC)) 185 % of control. The T/C is 113 % of control (dose: 21.0 mg/kg/injection, schedule: Q01DX Z (ip), vehicle: carboxymethylcellulose (CMC)); 91 % of control (dose: 62.0 mg/kg/injection, schedule: Q01DX Z (oral), vehicle: carboxymethylcellulose (CMC)); 102 % of control (dose: 125.0 mg/kg/injection, schedule: Q01DX Z (oral), vehicle: carboxymethylcellulose (CMC)); 98 % of control (dose: 250.0 mg/kg/injection, schedule: Q01DX Z (oral), vehicle: carboxymethylcellulose (CMC)); 100 % of control (dose: 500.0 mg/kg/injection, schedule: Q01DX Z (oral), vehicle: carboxymethylcellulose (CMC)).

Turning to `COc1cccc(CC(C(=O)c2ccc(O)cc2)c2ccccc2)c1` (centres undefined), the T/C runs as follows: under setting [5], 97 % of control; under setting [6], 97 % of control; under setting [7], 101 % of control.

`CC(c1ccccc1)C1CCCCC1` (centres undefined): the T/C by setting is: (dose: 100.0 mg/kg/injection, schedule: Q01DX001 (ip), vehicle: saline with Tween-80) 96 % of control; under setting [8], 96 % of control; under setting [9], 91 % of control.

Regarding `CC(=O)OCC1OC(N2CCc3cc([N+](=O)[O-])ccc32)C(OC(C)=O)C(OC(C)=O)C1OC(C)=O` (centres undefined), the T/C by setting is: (dose: 50.0 mg/kg/injection, schedule: Q01DX001 (ip), vehicle: saline) 97 % of control; under setting [5], 96 % of control; under setting [6], 96 % of control.

For the compound `CC(=O)Nc1ccc(OC(=O)Nc2cc(C(F)(F)F)ccc2Cl)cc1`, the T/C is, setting by setting: under setting [10], 93 % of control; under setting [11], 111 % of control.

In the case of `C=CCc1ccc(OCC(=O)O)c(OC)c1`, the T/C by setting is: under setting [1], 106 % of control; under setting [2], 93 % of control; under setting [3], 97 % of control.

Regarding `CCCCCCCCCCC(CCCCCCC)(CCCCCCCC)CCCCCCCCC` (centres undefined), the T/C was 102 % of control (dose: 133.0 mg/kg/injection, schedule: Q01DX001 (ip), vehicle: saline with Tween-80); 107 % of control under setting [8]; 102 % of control (dose: 300.0 mg/kg/injection, schedule: Q01DX001 (ip), vehicle: saline with Tween-80); 101 % of control under setting [9].

Turning to `Oc1cccc2c(NC(=S)Nc3ccccc3)cccc12`, the T/C is 101 % of control under setting [10]; 96 % of control under setting [4]; 101 % of control under setting [11]; 104 % of control under setting [12]; 100 % of control under setting [13].

Take `CC(C)(C)OC(=O)NC1CCCCC1`: the T/C runs as follows: (dose: 100.0 mg/kg/injection, schedule: Q04DX002 (ip), vehicle: saline with Tween-80) 111 % of control; (dose: 200.0 mg/kg/injection, schedule: Q04DX002 (ip), vehicle: saline with Tween-80) 101 % of control; (dose: 400.0 mg/kg/injection, schedule: Q04DX002 (ip), vehicle: saline with Tween-80) 104 % of control.

For `COC(=O)C(N=O)C(=O)OC`, the T/C is, setting by setting: under setting [5], 104 % of control; under setting [6], 109 % of control; under setting [7], 106 % of control.

For the compound `CC(C)OC(=S)Nc1ccccc1`, the T/C (dose: 50.0 mg/kg/injection, schedule: Q01DX009 (ip), vehicle: Klucel (hydroxypropylcellulose) (HPC)) was 102 % of control; the T/C (dose: 100.0 mg/kg/injection, schedule: Q01DX001 (ip), vehicle: gum acacia) was 102 % of control; the T/C under setting [10] was 107 % of control; the T/C (dose: 200.0 mg/kg/injection, schedule: Q01DX001 (ip), vehicle: gum acacia) was 98 % of control; the T/C under setting [11] was 98 % of control; the T/C (dose: 400.0 mg/kg/injection, schedule: Q01DX001 (ip), vehicle: gum acacia) is 95 % of control.

For the compound `O=C(c1ccccc1)C(c1ccccc1)C(C[N+](=O)[O-])c1ccccc1` (centres undefined), the T/C is 88 % of control (dose: 100.0 mg/kg/injection, schedule: Q01DX009 (ip), vehicle: saline with Tween-80); 90 % of control (dose: 200.0 mg/kg/injection, schedule: Q01DX009 (ip), vehicle: saline with Tween-80); 96 % of control (dose: 400.0 mg/kg/injection, schedule: Q01DX009 (ip), vehicle: saline with Tween-80).

As for `CCCCCCc1cc(OC(=O)c2ccccc2)ccc1OC(=O)c1ccccc1`, the T/C reads like this: (dose: 50.0 mg/kg/injection, schedule: Q01DX001 (ip), vehicle: carboxymethylcellulose (CMC)) 94 % of control; under setting [14], 97 % of control; under setting [15], 89 % of control; under setting [16], 97 % of control.

For `COC(OC)c1[nH]c(=S)[nH]c(=O)c1CCc1ccccc1`, the T/C runs as follows: under setting [4], 97 % of control; under setting [12], 97 % of control; under setting [13], 86 % of control.

`CCCCCCOC(=O)N1CCN(c2ccccc2)CC1`: the T/C (dose: 50.0 mg/kg/injection, schedule: Q01DX009 (ip), vehicle: saline) is 106 % of control; the T/C (dose: 100.0 mg/kg/injection, schedule: Q01DX009 (ip), vehicle: saline) is 92 % of control; the T/C (dose: 200.0 mg/kg/injection, schedule: Q01DX009 (ip), vehicle: saline) was 90 % of control.

Turning to `Cc1ccc2oc(=O)cc(C)c2c1`, the T/C runs as follows: under setting [14], 91 % of control; under setting [15], 96 % of control; under setting [16], 93 % of control.

Values taken from PubChem BioAssay AID248 (DTP/NCI, 2004).
